Data as given in ChEMBL document CHEMBL1201862, “PubChem BioAssay data set” (2004).
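Each compound was tested at five concentrations against cells in 96-well plates for 48 hours. Here, GI50 denotes the concentration required for 50% inhibition of growth.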 Active and inactive are the calls of the source. Rule as the data show it: active = GI50 up to about 1.1 µM and inactive = higher.

Experiments:
Test in all cases: NCI tumour cell line growth inhibition, 48 h
DMS-273 = tested on: DMS-273
HOP-18 = tested on: HOP-18
KM-20L2 = tested on: KM-20L2
LXFL 529 = tested on: LXFL 529
M19-MEL = tested on: M19-MEL
RXF 631 = tested on: RXF 631
SNB-78 = tested on: SNB-78
DMS-114 = tested on: DMS-114
XF498 = tested on: XF498

Measured: GI50

c1ccc2c(c1)C1=NCCN1c1ccccc1-2
inactive: DMS-273 1.74 µM | HOP-18 2.59 µM | KM-20L2 2.92 µM | LXFL 529 3.06 µM | M19-MEL 3.44 µM | RXF 631 2.77 µM | SNB-78 4 µM

COc1ccc(S(=O)(=O)N/N=C/C(=O)O)cc1
inactive: DMS-114 490 µM | DMS-273 518 µM | HOP-18 > 1060 µM | KM-20L2 > 1190 µM | M19-MEL 955 µM | SNB-78 830 µM | XF498 8.09 µM

COc1ccc(/C=C/COC(C)=O)cc1OC
inactive: DMS-114 > 100 µM | DMS-273 > 100 µM | KM-20L2 > 100 µM | LXFL 529 > 100 µM | M19-MEL > 100 µM | SNB-78 > 100 µM

C[N+]1(C)C/C(=C/c2ccc(F)cc2)C(=O)/C(=C\c2ccc(F)cc2)C1
inactive: DMS-114 22.8 µM | DMS-273 30.6 µM | HOP-18 > 100 µM | KM-20L2 > 100 µM | LXFL 529 38.9 µM | M19-MEL 36.1 µM | RXF 631 > 100 µM | SNB-78 > 100 µM

Cn1c(=O)c2nc3sc4ccccc4c(=N)n3c2n(C)c1=O
inactive: DMS-114 > 100 µM | DMS-273 > 100 µM | HOP-18 > 100 µM | LXFL 529 > 100 µM | M19-MEL > 100 µM | RXF 631 > 100 µM | SNB-78 > 100 µM | XF498 > 100 µM

N#CC(NNC(=O)c1ccccc1O)c1ccccc1O (stereo not drawn)
inactive: DMS-273 2.38 µM | HOP-18 4.65 µM | KM-20L2 32.8 µM | LXFL 529 18.6 µM | M19-MEL 4.45 µM | SNB-78 38.3 µM

CC(C)(C)c1ccc2c(c1)S(=O)(=O)Nc1cccc(c1)NS(=O)(=O)c1cc(C(C)(C)C)ccc1OCCOCCO2
inactive: DMS-114 > 100 µM | DMS-273 > 100 µM | HOP-18 > 100 µM | M19-MEL > 100 µM | RXF 631 > 100 µM | SNB-78 > 100 µM

O=[N+]([O-])c1cccc(-c2oc(/C=N/c3ccccc3)c([N+](=O)[O-])c2-c2cccc([N+](=O)[O-])c2)c1
inactive: DMS-114 > 100 µM | DMS-273 > 100 µM | KM-20L2 > 100 µM | LXFL 529 > 100 µM | M19-MEL > 100 µM | RXF 631 > 100 µM | SNB-78 > 100 µM

Cc1ccc([S+]([O-])c2ccccc2[N+](=O)[O-])cc1 (stereo not drawn)
inactive: DMS-114 36.5 µM | DMS-273 62.2 µM | M19-MEL 10 µM | RXF 631 35 µM | SNB-78 > 100 µM

COc1ccc2c(c1)CCc1c(C(C)=O)c3ccccc3n1C2
inactive: DMS-114 31.7 µM | DMS-273 33 µM | HOP-18 58.6 µM | LXFL 529 12.1 µM | M19-MEL 57.5 µM | RXF 631 42.1 µM | SNB-78 52 µM | XF498 12.9 µM

CC1=C(C(=O)NCc2ccccc2)C(c2ccccc2[N+](=O)[O-])C(C(=O)NCc2ccccc2)=C(C)N1
inactive: DMS-114 12 µM | DMS-273 10.6 µM | HOP-18 20.3 µM | KM-20L2 16.5 µM | LXFL 529 10.7 µM | M19-MEL 11.4 µM | RXF 631 15.4 µM | SNB-78 11.8 µM | XF498 18 µM

C#CCn1c(=O)[nH]c(=O)c2cccnc21
inactive: DMS-114 > 10 µM | DMS-273 > 100 µM | HOP-18 63.5 µM | KM-20L2 > 100 µM | LXFL 529 > 100 µM | RXF 631 > 100 µM | SNB-78 > 100 µM | XF498 > 100 µM

Ic1ncnc2c1ncn2C1CCCO1 (stereo not drawn)
inactive: DMS-114 > 100 µM | DMS-273 > 100 µM | HOP-18 > 100 µM | KM-20L2 > 100 µM | M19-MEL > 100 µM | SNB-78 > 100 µM | XF498 > 100 µM

COc1ccc2c3ccc4c(c3n(C)c2c1)C(=O)C=CC4=O
inactive: DMS-273 34.7 µM | HOP-18 36.7 µM | KM-20L2 > 100 µM | LXFL 529 15.2 µM | M19-MEL 18.3 µM | SNB-78 69.2 µM | XF498 24.4 µM

OC1OC2COC(c3ccccc3)OC2C(O)C1O (stereo not drawn)
inactive: DMS-114 > 100 µM | DMS-273 > 100 µM | HOP-18 > 100 µM | KM-20L2 > 100 µM | LXFL 529 > 100 µM | M19-MEL > 100 µM | SNB-78 > 100 µM | XF498 > 100 µM

CCOc1ccccc1NC(=O)CCC(=O)NN
inactive: DMS-273 > 100 µM | KM-20L2 > 100 µM | LXFL 529 > 100 µM | RXF 631 > 100 µM | SNB-78 > 100 µM | XF498 > 100 µM

O=C(/C=C/c1ccccc1O)C(c1ccccc1)c1ccccc1
inactive: DMS-114 63.2 µM | DMS-273 > 100 µM | HOP-18 > 100 µM | KM-20L2 > 100 µM | LXFL 529 > 100 µM | M19-MEL > 100 µM | RXF 631 > 100 µM | SNB-78 > 100 µM | XF498 > 100 µM

CS(=O)(=O)C1S(=O)(=O)OCCOS1(=O)=O
inactive: DMS-114 > 100 µM | DMS-273 > 100 µM | HOP-18 73.6 µM | KM-20L2 > 100 µM | LXFL 529 > 100 µM | M19-MEL > 100 µM | RXF 631 > 100 µM | SNB-78 > 100 µM | XF498 > 100 µM

CC#CCC1CCC(OCC)=CC1=O (stereo not drawn)
inactive: DMS-114 > 100 µM | DMS-273 > 100 µM | HOP-18 > 100 µM | KM-20L2 > 100 µM | LXFL 529 > 100 µM | M19-MEL > 100 µM | RXF 631 > 100 µM | SNB-78 > 100 µM | XF498 > 100 µM

COc1ccc(Br)c(C(=O)N2CCc3ccccc32)c1N
inactive: DMS-114 30.4 µM | DMS-273 15.7 µM | HOP-18 47.9 µM | KM-20L2 69.5 µM | LXFL 529 59.8 µM | M19-MEL 45.6 µM | SNB-78 > 100 µM | XF498 31.9 µM

CC(C)=CC(=O)C/C(=N\NC(N)=S)C(=O)Nc1ccc(Cl)cc1
inactive: DMS-114 > 100 µM | DMS-273 > 100 µM | HOP-18 > 100 µM | KM-20L2 > 100 µM | LXFL 529 > 100 µM | M19-MEL > 100 µM | SNB-78 > 100 µM

Cc1cn(C2CC(O)C(COC(=O)c3ccccc3)O2)c(=O)[nH]c1=O (stereo not drawn)
inactive: DMS-273 > 100 µM | HOP-18 > 100 µM | KM-20L2 > 100 µM | LXFL 529 > 100 µM | M19-MEL > 100 µM | RXF 631 > 100 µM | SNB-78 > 100 µM | XF498 > 100 µM

CC(C)(C)C(=O)/C=C/c1ccc(Oc2ccccc2)cc1
inactive: HOP-18 19.3 µM | KM-20L2 17.2 µM | LXFL 529 13.2 µM | M19-MEL 23.5 µM | SNB-78 25.5 µM | XF498 15.2 µM

CC(=O)n1cc(CC(C)O)c(=O)[nH]c1=O (stereo not drawn)
inactive: DMS-114 > 100 µM | DMS-273 > 100 µM | HOP-18 > 100 µM | KM-20L2 > 100 µM | LXFL 529 > 100 µM | M19-MEL > 100 µM | RXF 631 > 100 µM | SNB-78 > 100 µM | XF498 > 100 µM

COc1cc(C2c3cc4c(cc3[C@@H](Nc3ccc(C#N)cc3)C3COC(=O)[C@H]23)OCO4)cc(OC)c1O (stereo partly drawn)
inactive: HOP-18 1.16 µM | KM-20L2 2.33 µM | SNB-78 3.03 µM | XF498 3.2 µM
active: DMS-114 0.977 µM
